Test results reported in the NIST ThermoML archive (doi:10.1016/j.fluid.2018.11.001).
± gives the expanded uncertainty stated by the source.

Conditions: Crystal; visual observation

| Normal melting temperature [°C] | Compound |
| --- | --- |
| 54.2 ± 0.7 | CCn1cc[n+](C)c1.Cc1ccc(S(=O)(=O)[O-])cc1 [1-ethyl-3-methylimidazolium 4-methylbenzenesulfonate] |
| 77.1 ± 0.7 | CCn1cc[n+](C)c1.[Br-] [1-ethyl-3-methylimidazolium bromide] |
